In the NIST ThermoML archive (doi:10.1016/j.tca.2019.178383):

Assay: xn = mol fraction of the nth substance listed
Conditions: for surface tension liquid-gas: Maximal bubble pressure; for mass density: 100 kPa, Liquid, Vibrating tube method

CCn1cc[n+](CCOC)c1.O=S(=O)([O-])C(F)(F)F + CCO
Conditions	mass density, 288.15 K [kg/m3]	mass density, 293.15 K [kg/m3]	mass density, 298.15 K [kg/m3]	surface tension liquid-gas, 288.15 K [mN/m]	surface tension liquid-gas, 293.15 K [mN/m]	surface tension liquid-gas, 298.15 K [mN/m]	surface tension liquid-gas, 303.15 K [mN/m]
x1 = 0.0996	965.057	960.722	956.38	23.1	22.6	22.1	21.6
x1 = 0.1999	1071.98	1067.62	1063.27	24.2	23.8	23.3	22.8
x1 = 0.2996	1144.79	1140.44	1136.09	25.6	25.2	24.8	24.4
x1 = 0.3984	1196.95	1192.61	1188.29	27.1	26.7	26.3	25.8
x1 = 0.4991	1237.58	1233.26	1228.95	28.7	28.3	27.9	27.5
x1 = 0.6026	1270.25	1265.94	1261.65	30.5	30.1	29.7	29.3
x1 = 0.6991	1295.01	1290.72	1286.44	31.8	31.4	31.1	30.7
x1 = 0.797	1315.78	1311.49	1307.22	33.4	33.1	32.8	32.5
x1 = 0.8995	1333.85	1329.57	1325.31	34.9	34.7	34.4	34.1
x1 = 1	1348.94	1344.66	1340.41	36.3	36.1	35.8	35.5
